From PubChem BioAssay (NCI)
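96-well plates; 48 h exposure; 5 concentrations. Endpoints by linear interpolation between flanking doses. Not reached: highest tested concentration assigned. Definition used: TGI = concentration required for complete inhibition of growth.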

Assays:
Assay in all cases: growth of human tumour cells (NCI), 48 h
SNB-19 CNS = system: SNB-19 CNS
IGROV1 ovarian = system: IGROV1 ovarian
SF-268 CNS = system: SF-268 CNS
786-0 renal = system: 786-0 renal
LOX IMVI melanoma = system: LOX IMVI melanoma
OVCAR-8 ovarian = system: OVCAR-8 ovarian
UACC-62 melanoma = system: UACC-62 melanoma
SF-539 CNS = system: SF-539 CNS
TK-10 renal = system: TK-10 renal
KM12 colon = system: KM12 colon
M14 melanoma = system: M14 melanoma
A549 NSCLC = system: A549 NSCLC
SF-295 CNS = system: SF-295 CNS
BT-549 breast = system: BT-549 breast
T-47D breast = system: T-47D breast
HCC-2998 colon = system: HCC-2998 colon
MDA-MB-435 = system: MDA-MB-435
HOP-62 NSCLC = system: HOP-62 NSCLC
NCI-H226 lung = system: NCI-H226 lung
K-562 leukemia = system: K-562 leukemia
MDA-MB-231 breast = system: MDA-MB-231 breast
CCRF-CEM leukemia = system: CCRF-CEM leukemia
NCI-H460 lung = system: NCI-H460 lung
NCI-H23 lung = system: NCI-H23 lung
SW-620 colon = system: SW-620 colon
SK-OV-3 ovarian = system: SK-OV-3 ovarian
UACC-257 melanoma = system: UACC-257 melanoma
OVCAR-4 ovarian = system: OVCAR-4 ovarian
DU-145 prostate = system: DU-145 prostate
NCI/ADR-RES ovarian = system: NCI/ADR-RES ovarian
EKVX NSCLC = system: EKVX NSCLC
HCT-15 colon = system: HCT-15 colon
HL-60(TB) leukemia = system: HL-60(TB) leukemia
ACHN renal = system: ACHN renal
OVCAR-5 ovarian = system: OVCAR-5 ovarian
UO-31 renal = system: UO-31 renal
RPMI-8226 leukemia = system: RPMI-8226 leukemia
SK-MEL-5 melanoma = system: SK-MEL-5 melanoma
SK-MEL-28 melanoma = system: SK-MEL-28 melanoma
U251 CNS = system: U251 CNS
CAKI-1 renal = system: CAKI-1 renal
OVCAR-3 ovarian = system: OVCAR-3 ovarian
SK-MEL-2 melanoma = system: SK-MEL-2 melanoma
MOLT-4 leukemia = system: MOLT-4 leukemia
HS 578T breast = system: HS 578T breast
COLO 205 colon = system: COLO 205 colon
NCI-H522 lung = system: NCI-H522 lung
SN12C renal = system: SN12C renal
A498 renal = system: A498 renal
HCT-116 colon = system: HCT-116 colon
MCF7 breast = system: MCF7 breast
MALME-3M melanoma = system: MALME-3M melanoma
HT29 colon = system: HT29 colon
PC-3 prostate = system: PC-3 prostate
MDA-N = system: MDA-N
SNB-75 CNS = system: SNB-75 CNS
HOP-92 NSCLC = system: HOP-92 NSCLC
RXF 393 renal = system: RXF 393 renal

CC(C)=CCC/C(C)=C/CO
TGI (SNB-19 CNS): > 100 µM
TGI (IGROV1 ovarian): > 100 µM
TGI (SF-268 CNS): > 100 µM
TGI (786-0 renal): > 100 µM
TGI (LOX IMVI melanoma): > 100 µM
TGI (OVCAR-8 ovarian): > 100 µM
TGI (UACC-62 melanoma): > 100 µM
TGI (SF-539 CNS): > 100 µM
TGI (TK-10 renal): > 100 µM
TGI (KM12 colon): > 100 µM
TGI (M14 melanoma): > 100 µM
TGI (A549 NSCLC): > 100 µM
TGI (SF-295 CNS): > 100 µM
TGI (BT-549 breast): > 100 µM
TGI (T-47D breast): > 100 µM
TGI (HCC-2998 colon): > 100 µM
TGI (MDA-MB-435): > 100 µM
TGI (HOP-62 NSCLC): > 100 µM
TGI (NCI-H226 lung): > 100 µM
TGI (K-562 leukemia): > 100 µM
TGI (MDA-MB-231 breast): > 100 µM
TGI (CCRF-CEM leukemia): > 100 µM
TGI (NCI-H460 lung): > 100 µM
TGI (NCI-H23 lung): > 100 µM
TGI (SW-620 colon): > 100 µM
TGI (SK-OV-3 ovarian): > 100 µM
TGI (UACC-257 melanoma): > 100 µM
TGI (OVCAR-4 ovarian): > 100 µM
TGI (DU-145 prostate): > 100 µM
TGI (NCI/ADR-RES ovarian): > 100 µM
TGI (EKVX NSCLC): > 100 µM
TGI (HCT-15 colon): > 100 µM
TGI (HL-60(TB) leukemia): > 100 µM
TGI (ACHN renal): > 100 µM
TGI (OVCAR-5 ovarian): > 100 µM
TGI (UO-31 renal): > 100 µM
TGI (RPMI-8226 leukemia): > 100 µM
TGI (SK-MEL-5 melanoma): > 100 µM
TGI (SK-MEL-28 melanoma): > 100 µM
TGI (U251 CNS): > 100 µM
TGI (CAKI-1 renal): > 100 µM
TGI (OVCAR-3 ovarian): > 100 µM
TGI (SK-MEL-2 melanoma): > 100 µM
TGI (MOLT-4 leukemia): > 100 µM
TGI (HS 578T breast): > 100 µM
TGI (COLO 205 colon): > 100 µM
TGI (NCI-H522 lung): > 100 µM
TGI (SN12C renal): > 100 µM
TGI (A498 renal): > 100 µM
TGI (HCT-116 colon): > 100 µM
TGI (MCF7 breast): > 100 µM
TGI (MALME-3M melanoma): > 100 µM
TGI (HT29 colon): > 100 µM
TGI (PC-3 prostate): > 100 µM
TGI (MDA-N): > 100 µM

O=C1C(Cl)=C(Cl)C(=O)C2=C1C1c3ccccc3C2c2ccccc21
TGI (SNB-19 CNS): > 100 µM
TGI (IGROV1 ovarian): > 100 µM
TGI (SF-268 CNS): > 100 µM
TGI (786-0 renal): 47.4 µM
TGI (OVCAR-8 ovarian): > 100 µM
TGI (UACC-62 melanoma): 79.9 µM
TGI (SF-539 CNS): 65.9 µM
TGI (TK-10 renal): > 100 µM
TGI (KM12 colon): > 100 µM
TGI (SNB-75 CNS): > 100 µM
TGI (M14 melanoma): > 100 µM
TGI (A549 NSCLC): > 100 µM
TGI (SF-295 CNS): > 100 µM
TGI (BT-549 breast): > 100 µM
TGI (T-47D breast): 60.1 µM
TGI (HCC-2998 colon): > 100 µM
TGI (MDA-MB-435): > 100 µM
TGI (HOP-62 NSCLC): 59.4 µM
TGI (NCI-H226 lung): > 100 µM
TGI (K-562 leukemia): > 100 µM
TGI (MDA-MB-231 breast): 65.2 µM
TGI (CCRF-CEM leukemia): > 100 µM
TGI (NCI-H460 lung): 99.2 µM
TGI (NCI-H23 lung): > 100 µM
TGI (SW-620 colon): 59.5 µM
TGI (SK-OV-3 ovarian): > 100 µM
TGI (UACC-257 melanoma): > 100 µM
TGI (OVCAR-4 ovarian): > 100 µM
TGI (DU-145 prostate): > 100 µM
TGI (NCI/ADR-RES ovarian): > 100 µM
TGI (EKVX NSCLC): > 100 µM
TGI (HCT-15 colon): > 100 µM
TGI (HL-60(TB) leukemia): 52.5 µM
TGI (ACHN renal): > 100 µM
TGI (OVCAR-5 ovarian): > 100 µM
TGI (UO-31 renal): > 100 µM
TGI (RPMI-8226 leukemia): 53.5 µM
TGI (HOP-92 NSCLC): 43.5 µM
TGI (SK-MEL-5 melanoma): > 100 µM
TGI (SK-MEL-28 melanoma): > 100 µM
TGI (U251 CNS): 45.4 µM
TGI (OVCAR-3 ovarian): > 100 µM
TGI (SK-MEL-2 melanoma): > 100 µM
TGI (RXF 393 renal): 75.2 µM
TGI (MOLT-4 leukemia): > 100 µM
TGI (HS 578T breast): > 100 µM
TGI (COLO 205 colon): 61.4 µM
TGI (NCI-H522 lung): 33 µM
TGI (SN12C renal): > 100 µM
TGI (A498 renal): > 100 µM
TGI (HCT-116 colon): > 100 µM
TGI (MCF7 breast): > 100 µM
TGI (MALME-3M melanoma): 57.7 µM
TGI (HT29 colon): > 100 µM
TGI (PC-3 prostate): > 100 µM
TGI (MDA-N): > 100 µM
